Test results: PubChem BioAssay AID1963847 (Molecular Pharmacology Branch, DTP, NCI, 2024)

Test system: 415267-285-R-J2-PDC complex spheroid viability
Experiment: Anticancer human tumor 415267-285-R-J2-PDC patient-derived breast carcinoma cell line growth inhibition [POLQ]
Conditions: for IC50: curve of first compound; for viability, T/C: stronger effect = lower value
Procedure, shortened: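 PDC + HUVEC + MSC complex spheroids; POLQ inhibitors ± partner drugs; top conc. at/near clinical Cmax, else 10 microM (SN-38 1 microM), half-log dilutions; 37 degrees C, 5% CO2.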

[1] = second compound 0.0316 µM, first compound 0.0316 µM
[2] = second compound 0.0316 µM, first compound 0.1 µM
[3] = second compound 0.0316 µM, first compound 0.316 µM
[4] = second compound 0.0316 µM, first compound 1 µM
[5] = second compound 0.0316 µM, first compound 3.16 µM
[6] = second compound 0.0316 µM, first compound 10 µM
[7] = second compound 0.1 µM, first compound 0.0316 µM
[8] = second compound 0.1 µM, first compound 0.1 µM
[9] = second compound 0.1 µM, first compound 0.316 µM
[10] = second compound 0.1 µM, first compound 1 µM
[11] = second compound 0.1 µM, first compound 3.16 µM
[12] = second compound 0.1 µM, first compound 10 µM
[13] = second compound 0.316 µM, first compound 0.0316 µM
[14] = second compound 0.316 µM, first compound 0.1 µM
[15] = second compound 0.316 µM, first compound 0.316 µM
[16] = second compound 0.316 µM, first compound 1 µM
[17] = second compound 0.316 µM, first compound 3.16 µM
[18] = second compound 0.316 µM, first compound 10 µM
[19] = second compound 1 µM, first compound 0.0316 µM
[20] = second compound 1 µM, first compound 0.1 µM
[21] = second compound 1 µM, first compound 0.316 µM
[22] = second compound 1 µM, first compound 1 µM
[23] = second compound 1 µM, first compound 3.16 µM
[24] = second compound 1 µM, first compound 10 µM
[25] = second compound 3.16 µM, first compound 0.0316 µM
[26] = second compound 3.16 µM, first compound 0.1 µM
[27] = second compound 3.16 µM, first compound 0.316 µM
[28] = second compound 3.16 µM, first compound 1 µM
[29] = second compound 3.16 µM, first compound 3.16 µM
[30] = second compound 3.16 µM, first compound 10 µM
[31] = second compound 10 µM, first compound 0.0316 µM
[32] = second compound 10 µM, first compound 0.1 µM
[33] = second compound 10 µM, first compound 0.316 µM
[34] = second compound 10 µM, first compound 1 µM
[35] = second compound 10 µM, first compound 3.16 µM
[36] = second compound 10 µM, first compound 10 µM
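Also: spheroids exposed to compounds for one week before readout.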
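For viability, T/C in this document: luminescence used as stand-in measure of viable cells; 100% = DMSO vehicle control viability.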

SMILES: C#Cc1c(F)ccc2cc(O)cc(-c3ncc4c(N5CC6CCC(C5)N6)nc(OCC56CCCN5CC(F)C6)nc4c3F)c12 (stereo not drawn) + Cc1cccc(N(C)C(=O)C2C(O)CCN2c2nc(C)cc(C(F)(F)F)c2C#N)c1
- IC50 (second compound 0.0316 µM): > 10 µM
- IC50 (second compound 0.1 µM): > 10 µM
- IC50 (second compound 0.316 µM): > 10 µM
- IC50 (second compound 1 µM): > 10 µM
- IC50 (second compound 3.16 µM): > 10 µM
- IC50 (second compound 10 µM): > 10 µM
- viability, T/C [1]: 96.9%
- viability, T/C [2]: 95.5%
- viability, T/C [3]: 104%
- viability, T/C [4]: 104%
- viability, T/C [5]: 111%
- viability, T/C [6]: 101%
- viability, T/C [7]: 91.2%
- viability, T/C [8]: 99.8%
- viability, T/C [9]: 91%
- viability, T/C [10]: 99.8%
- viability, T/C [11]: 104%
- viability, T/C [12]: 102%
- viability, T/C [13]: 112%
- viability, T/C [14]: 102%
- viability, T/C [15]: 100%
- viability, T/C [16]: 115%
- viability, T/C [17]: 113%
- viability, T/C [18]: 104%
- viability, T/C [19]: 101%
- viability, T/C [20]: 106%
- viability, T/C [21]: 92.9%
- viability, T/C [22]: 117%
- viability, T/C [23]: 106%
- viability, T/C [24]: 109%
- viability, T/C [25]: 113%
- viability, T/C [26]: 98.8%
- viability, T/C [27]: 104%
- viability, T/C [28]: 115%
- viability, T/C [29]: 91.3%
- viability, T/C [30]: 98.7%
- viability, T/C [31]: 105%
- viability, T/C [32]: 95.4%
- viability, T/C [33]: 95.6%
- viability, T/C [34]: 98%
- viability, T/C [35]: 101%
- viability, T/C [36]: 98.4%

SMILES: C=CC(=O)N1CCN(c2nc(=O)n(-c3c(C)ccnc3C(C)C)c3nc(-c4c(O)cccc4F)c(F)cc23)C(C)C1 (stereo not drawn) + Cc1cccc(N(C)C(=O)C2C(O)CCN2c2nc(C)cc(C(F)(F)F)c2C#N)c1
- IC50 (second compound 0.0316 µM): > 10 µM
- IC50 (second compound 0.1 µM): > 10 µM
- IC50 (second compound 0.316 µM): > 10 µM
- IC50 (second compound 1 µM): > 10 µM
- IC50 (second compound 3.16 µM): > 10 µM
- IC50 (second compound 10 µM): > 10 µM
- viability, T/C [1]: 101%
- viability, T/C [2]: 104%
- viability, T/C [3]: 102%
- viability, T/C [4]: 104%
- viability, T/C [5]: 111%
- viability, T/C [6]: 93.5%
- viability, T/C [7]: 98.4%
- viability, T/C [8]: 95.6%
- viability, T/C [9]: 98.7%
- viability, T/C [10]: 103%
- viability, T/C [11]: 100%
- viability, T/C [12]: 97.7%
- viability, T/C [13]: 103%
- viability, T/C [14]: 106%
- viability, T/C [15]: 105%
- viability, T/C [16]: 105%
- viability, T/C [17]: 99.5%
- viability, T/C [18]: 102%
- viability, T/C [19]: 95.8%
- viability, T/C [20]: 105%
- viability, T/C [21]: 106%
- viability, T/C [22]: 99.8%
- viability, T/C [23]: 112%
- viability, T/C [24]: 91.4%
- viability, T/C [25]: 99.2%
- viability, T/C [26]: 104%
- viability, T/C [27]: 107%
- viability, T/C [28]: 102%
- viability, T/C [29]: 99.1%
- viability, T/C [30]: 96.7%
- viability, T/C [31]: 100%
- viability, T/C [32]: 90.8%
- viability, T/C [33]: 101%
- viability, T/C [34]: 102%
- viability, T/C [35]: 94.4%
- viability, T/C [36]: 88.8%

SMILES: CC(C)n1c(=O)n(C)c2cnc3cc(F)c(-c4ccc(OCCCN5CCCCC5)nc4)cc3c21 + Cc1cccc(N(C)C(=O)C2C(O)CCN2c2nc(C)cc(C(F)(F)F)c2C#N)c1
- IC50 (second compound 0.0316 µM): > 10 µM
- IC50 (second compound 0.1 µM): > 10 µM
- IC50 (second compound 0.316 µM): > 10 µM
- IC50 (second compound 1 µM): > 10 µM
- IC50 (second compound 3.16 µM): > 10 µM
- IC50 (second compound 10 µM): > 10 µM
- viability, T/C [1]: 88.5%
- viability, T/C [2]: 107%
- viability, T/C [3]: 100%
- viability, T/C [4]: 110%
- viability, T/C [5]: 111%
- viability, T/C [6]: 93.8%
- viability, T/C [7]: 89.7%
- viability, T/C [8]: 88.6%
- viability, T/C [9]: 105%
- viability, T/C [10]: 101%
- viability, T/C [11]: 101%
- viability, T/C [12]: 80.6%
- viability, T/C [13]: 103%
- viability, T/C [14]: 98.5%
- viability, T/C [15]: 105%
- viability, T/C [16]: 105%
- viability, T/C [17]: 111%
- viability, T/C [18]: 92.5%
- viability, T/C [19]: 102%
- viability, T/C [20]: 94.8%
- viability, T/C [21]: 108%
- viability, T/C [22]: 109%
- viability, T/C [23]: 104%
- viability, T/C [24]: 87.5%
- viability, T/C [25]: 94.4%
- viability, T/C [26]: 111%
- viability, T/C [27]: 96.7%
- viability, T/C [28]: 105%
- viability, T/C [29]: 87.5%
- viability, T/C [30]: 81.9%
- viability, T/C [31]: 99.1%
- viability, T/C [32]: 86.1%
- viability, T/C [33]: 90.4%
- viability, T/C [34]: 96.8%
- viability, T/C [35]: 87.6%
- viability, T/C [36]: 81%

SMILES: CC1COCCN1c1cc(C2(O)CC3CCC(C2)O3)c2cnn(-c3ccn[nH]3)c2n1 (stereo not drawn) + Cc1cccc(N(C)C(=O)C2C(O)CCN2c2nc(C)cc(C(F)(F)F)c2C#N)c1
- IC50 (second compound 0.0316 µM): < 0.0316 µM
- IC50 (second compound 0.1 µM): < 0.0316 µM
- IC50 (second compound 0.316 µM): < 0.0316 µM
- IC50 (second compound 1 µM): < 0.0316 µM
- IC50 (second compound 3.16 µM): < 0.0316 µM
- IC50 (second compound 10 µM): < 0.0316 µM
- viability, T/C [1]: 18.2%
- viability, T/C [2]: 7.78%
- viability, T/C [3]: 5.17%
- viability, T/C [4]: 4.79%
- viability, T/C [5]: 4.69%
- viability, T/C [6]: 4.06%
- viability, T/C [7]: 17.1%
- viability, T/C [8]: 6.52%
- viability, T/C [9]: 4.78%
- viability, T/C [10]: 4.34%
- viability, T/C [11]: 5.05%
- viability, T/C [12]: 5.28%
- viability, T/C [13]: 17.9%
- viability, T/C [14]: 5.44%
- viability, T/C [15]: 5.64%
- viability, T/C [16]: 4.91%
- viability, T/C [17]: 4.67%
- viability, T/C [18]: 4.41%
- viability, T/C [19]: 24.7%
- viability, T/C [20]: 6.22%
- viability, T/C [21]: 4.58%
- viability, T/C [22]: 4.12%
- viability, T/C [23]: 4.85%
- viability, T/C [24]: 5.19%
- viability, T/C [25]: 20.4%
- viability, T/C [26]: 6.14%
- viability, T/C [27]: 5.01%
- viability, T/C [28]: 4.84%
- viability, T/C [29]: 4.41%
- viability, T/C [30]: 4.56%
- viability, T/C [31]: 21.4%
- viability, T/C [32]: 6.79%
- viability, T/C [33]: 5.41%
- viability, T/C [34]: 5.44%
- viability, T/C [35]: 4.9%
- viability, T/C [36]: 4.36%
